Calls of active or inactive are those of the source. No cut-off for these calls is given here.
Legend:
[1] = tested on: HeLa; assay: Cytotoxicity against human HeLa cells by trypan blue exclusion method; format: functional, cell-based
[2] = tested on: Ca-Ski; assay: Cytotoxicity against human CaSki cells by trypan blue exclusion method; format: functional, cell-based; settings: TDE = time-dependent effect
[3] = tested on: Ca-Ski; assay: Cell cycle arrest in human CaSki cells assessed as accumulation at G0/G1 phase after 8 hrs by flow cytometry; format: functional
[4] = tested on: Ca-Ski; assay: Cell cycle arrest in human CaSki cells assessed as accumulation at S phase after 8 hrs by flow cytometry; format: functional
[5] = tested on: Ca-Ski; assay: Cell cycle arrest in human CaSki cells assessed as accumulation at G2/M phase after 8 hrs by flow cytometry; format: functional
[6] = tested on: Ca-Ski; assay: Induction of apoptosis in human CaSki cells at 1 mM after 8 hrs by TUNEL/DAPI double staining; format: functional
[7] = tested on: Ca-Ski; assay: Cell cycle arrest in human CaSki cells assessed as accumulation at G0/G1 phase after 24 hrs by flow cytometry; format: functional
[8] = tested on: Ca-Ski; assay: Cell cycle arrest in human CaSki cells assessed as accumulation at S phase after 24 hrs by flow cytometry; format: functional
[9] = tested on: Ca-Ski; assay: Cell cycle arrest in human CaSki cells assessed as accumulation at G2/M phase after 24 hrs by flow cytometry; format: functional
[10] = tested on: Ca-Ski; assay: Induction of apoptosis in human CaSki cells at 1 mM after 24 hrs by TUNEL/DAPI double staining; format: functional
[11] = tested on: Ca-Ski; assay: Cell cycle arrest in human CaSki cells assessed as accumulation at G0/G1 phase after 48 hrs by flow cytometry; format: functional
[12] = tested on: Ca-Ski; assay: Cell cycle arrest in human CaSki cells assessed as accumulation at S phase after 48 hrs by flow cytometry; format: functional
[13] = tested on: Ca-Ski; assay: Cell cycle arrest in human CaSki cells assessed as accumulation at G2/M phase after 48 hrs by flow cytometry; format: functional
[14] = tested on: Ca-Ski; assay: Induction of apoptosis in human CaSki cells at 1 mM after 48 hrs by TUNEL/DAPI double staining; format: functional
[15] = tested on: HeLa; assay: Cell cycle arrest in human HeLa cells assessed as accumulation at G0/G1 phase after 8 hrs by flow cytometry; format: functional
[16] = tested on: HeLa; assay: Cell cycle arrest in human HeLa cells assessed as accumulation at S phase after 8 hrs by flow cytometry; format: functional
[17] = tested on: HeLa; assay: Cell cycle arrest in human HeLa cells assessed as accumulation at G2/M phase after 8 hrs by flow cytometry; format: functional
[18] = tested on: HeLa; assay: Induction of apoptosis in human HeLa cells at 1 mM after 8 hrs by TUNEL/DAPI double staining; format: functional
[19] = tested on: HeLa; assay: Cell cycle arrest in human HeLa cells assessed as accumulation at G0/G1 phase after 24 hrs by flow cytometry; format: functional
[20] = tested on: HeLa; assay: Cell cycle arrest in human HeLa cells assessed as accumulation at S phase after 24 hrs by flow cytometry; format: functional
[21] = tested on: HeLa; assay: Cell cycle arrest in human HeLa cells assessed as accumulation at G2/M phase after 24 hrs by flow cytometry; format: functional
[22] = tested on: HeLa; assay: Induction of apoptosis in human HeLa cells at 1 mM after 24 hrs by TUNEL/DAPI double staining; format: functional
[23] = tested on: HeLa; assay: Cell cycle arrest in human HeLa cells assessed as accumulation at G0/G1 phase after 48 hrs by flow cytometry; format: functional
[24] = tested on: HeLa; assay: Cell cycle arrest in human HeLa cells assessed as accumulation at S phase after 48 hrs by flow cytometry; format: functional
[25] = tested on: HeLa; assay: Cell cycle arrest in human HeLa cells assessed as accumulation at G2/M phase after 48 hrs by flow cytometry; format: functional
[26] = tested on: HeLa; assay: Induction of apoptosis in human HeLa cells at 1 mM after 48 hrs by TUNEL/DAPI double staining; format: functional
[27] = tested on: Ca-Ski; assay: Increase in p53 protein level in human CaSki cells at 1 mM after 24 hrs by Western blot; format: functional, cell-based
[28] = tested on: HeLa; assay: Increase in p53 protein level in human HeLa cells at 1 mM after 24 hrs by Western blot; format: functional, cell-based
[29] = tested on: Ca-Ski; assay: Increase in p53 protein level in human CaSki cells at 1 mM up to 48 hrs by Western blot; format: functional, cell-based
[30] = tested on: Ca-Ski; assay: Decrease in CDK1 protein expression in human CaSki cells at 1 mM by Western blot; format: functional, cell-based
[31] = tested on: Ca-Ski; assay: Decrease in CDK2 protein expression in human CaSki cells at 1 mM by Western blot; format: functional, cell-based
[32] = tested on: Ca-Ski; assay: Decrease in cyclin A protein expression in human CaSki cells at 1 mM by Western blot; format: functional, cell-based
[33] = tested on: Ca-Ski; assay: Decrease in cyclin B protein expression in human CaSki cells at 1 mM by Western blot; format: functional, cell-based
[34] = tested on: HeLa; assay: Decrease in CDK1 protein expression in human HeLa cells at 1 mM by Western blot; format: functional, cell-based
[35] = tested on: HeLa; assay: Decrease in CDK2 protein expression in human HeLa cells at 1 mM by Western blot; format: functional, cell-based
[36] = tested on: HeLa; assay: Decrease in cyclin A protein expression in human HeLa cells at 1 mM by Western blot; format: functional, cell-based
[37] = tested on: HeLa; assay: Decrease in cyclin B protein expression in human HeLa cells at 1 mM by Western blot; format: functional, cell-based
[38] = tested on: Ca-Ski; assay: Increase in Bax protein expression in human CaSki cells at 1 mM by Western blot; format: functional, cell-based
[39] = tested on: HeLa; assay: Increase in Bax protein expression in human HeLa cells at 1 mM by Western blot; format: functional, cell-based
[40] = tested on: Ca-Ski; assay: Decrease in Bcl2 protein expression in human CaSki cells at 1 mM by Western blot; format: functional, cell-based
[41] = tested on: HeLa; assay: Decrease in Bcl2 protein expression in human HeLa cells at 1 mM by Western blot; format: functional, cell-based
[42] = tested on: Ca-Ski; assay: Effect on Bcl-Xl protein expression in human CaSki cells at 1 mM by Western blot; format: functional, cell-based
[43] = tested on: HeLa; assay: Effect on Bcl-Xl protein expression in human HeLa cells at 1 mM by Western blot; format: functional, cell-based
[44] = tested on: Ca-Ski; assay: Induction of apoptosis in human CaSki cells assessed as chromatin condensation at 1 mM after 48 hrs by TUNEL/DAPI double staining; format: functional, cell-based
[45] = tested on: HeLa; assay: Induction of apoptosis in human HeLa cells assessed as chromatin condensation at 1 mM after 48 hrs by TUNEL/DAPI double staining; format: functional, cell-based
[46] = tested on: Ca-Ski; assay: Induction of apoptosis in human CaSki cells assessed as nuclear DNA fragmentation at 1 mM after 48 hrs by TUNEL/DAPI double staining; format: functional, cell-based
[47] = tested on: HeLa; assay: Induction of apoptosis in human HeLa cells assessed as nuclear DNA fragmentation at 1 mM after 48 hrs by TUNEL/DAPI double staining; format: functional, cell-based
[48] = tested on: Ca-Ski; assay: Induction of cytosolic cytochrome c accumulation in human CaSki cells at 1 mM by SDS-PAGE; format: functional, cell-based; settings: TDE = time-dependent effect
[49] = tested on: HeLa; assay: Induction of cytosolic cytochrome c accumulation in human HeLa cells at 1 mM by SDS-PAGE; format: functional, cell-based; settings: TDE = time-dependent effect
[50] = tested on: Ca-Ski; assay: Induction of apoptosis in human CaSki cells assessed as proteolytic activation of caspase 9 at 1 mM by SDS-PAGE; format: functional, cell-based
[51] = tested on: HeLa; assay: Induction of apoptosis in human HeLa cells assessed as proteolytic activation of caspase 9 at 1 mM by SDS-PAGE; format: functional, cell-based
[52] = tested on: Ca-Ski; assay: Induction of apoptosis in human CaSki cells assessed as proteolytic activation of caspase 3 at 1 mM by SDS-PAGE; format: functional, cell-based
[53] = tested on: HeLa; assay: Induction of apoptosis in human HeLa cells assessed as proteolytic activation of caspase 3 at 1 mM by SDS-PAGE; format: functional, cell-based
[54] = tested on: Ca-Ski; assay: Induction of apoptosis in human CaSki cells assessed as caspase 3 activation by fluorogenic substrate based assay after 24 hrs; format: functional, cell-based
[55] = tested on: HeLa; assay: Induction of apoptosis in human HeLa cells assessed as caspase 3 activation by fluorogenic substrate based assay after 24 hrs; format: functional, cell-based
[56] = tested on: Ca-Ski; assay: Induction of apoptosis in human CaSki cells assessed as caspase 9 activation by fluorogenic substrate based assay after 48 hrs; format: functional, cell-based
[57] = tested on: HeLa; assay: Induction of apoptosis in human HeLa cells assessed as caspase 9 activation by fluorogenic substrate based assay after 48 hrs; format: functional, cell-based

`CCCCNC(=O)Cc1ccc(F)cc1` was tested, and the Activity [1] was “Dose-dependent effect”, the Activity [2] was “tde” and the Activity [3] was 53.6%. The Activity [4] was 27.7%, the Activity [5] was 18.6% and the Activity [6] was 5.6%. It also gave an Activity [7] of 52.7%, an Activity [8] of 21% and an Activity [9] of 26.5%. For the same molecule, the Activity [10] was 6%, the Activity [11] was 51.5% and the Activity [12] was 19.9%. For the same molecule, the Activity [13] was 28.6%, the Activity [14] was 13.2% and the Activity [15] was 31.2%. It also gave an Activity [16] of 46.9%, an Activity [17] of 22.1% and an Activity [18] of 1.9%. For the same molecule, the Activity [19] was 42.6%, the Activity [20] was 28.9% and the Activity [21] was 28.5%. For the same molecule, the Activity [22] was 23.6%, the Activity [23] was 30.6% and the Activity [24] was 22.7%. For the same molecule, the Activity [25] was 46.7%, the Activity [26] was 28.2% and the Activity [27] was “Active”. For the same molecule, the Activity [28] was “Active”, the Activity [29] was “Active” and the Activity [30] was “Active”. For the same molecule, the Activity [31] was “Active”, the Activity [32] was “Active” and the Activity [33] was “Active”. The Activity [34] was “Active”, the Activity [35] was “Active” and the Activity [36] was “Active”. For the same molecule, the Activity [37] was “Active”, the Activity [38] was “Active” and the Activity [39] was “Active”. The Activity [40] was “Active”, the Activity [41] was “Active” and the Activity [42] was “inactive”. The Activity [43] was “inactive”, the Activity [44] was “Active” and the Activity [45] was “Active”. For the same molecule, the Activity [46] was “Active”, the Activity [47] was “Active” and the Activity [48] was “tde”. For the same molecule, the Activity [49] was “tde”, the Activity [50] was “Active” and the Activity [51] was “Active”. For the same molecule, the Activity [52] was “Active”, the Activity [53] was “Active” and the Activity [54] was “Active”. The Activity [55] was “Active”, the Activity [56] was “Active” and the Activity [57] was “Active”.

From ChEMBL document CHEMBL1139328, “4-Fluoro-N-butylphenylacetamide (H6) inhibits cell growth via cell-cycle arrest and apoptosis in human cervical cancer cells” (2009)
